Reference: patent US9550792B2, “Polycyclic substituted pyrazole kinase activity inhibitors and use thereof” (priority 2013, dated 2017)
Where two headings read alike, the source gives them in different places.

Assays:
Type in all cases: biochemical
CDK1/cyclin E = CDK1/cyclin E (Homo sapiens, UniProt P06493); assay: Kinase IC50, 33P labeled isotope method
CDK2/Cyclin A1 = CDK2/Cyclin A1 (Homo sapiens, UniProt P24941); assay: Kinase IC50, 33P labeled isotope method
FGFR3 = FGFR3 (Homo sapiens, UniProt P22607); assay: Kinase IC50, 33P labeled isotope method; details: 20 μM ATP
FLT1/VEGFR1 = biological target: T1, FLT1/VEGFR1 (Homo sapiens, UniProt P17948); assay: Kinase IC50, 33P labeled isotope method
T1 sequence (P17948 827-1158 limits assumed): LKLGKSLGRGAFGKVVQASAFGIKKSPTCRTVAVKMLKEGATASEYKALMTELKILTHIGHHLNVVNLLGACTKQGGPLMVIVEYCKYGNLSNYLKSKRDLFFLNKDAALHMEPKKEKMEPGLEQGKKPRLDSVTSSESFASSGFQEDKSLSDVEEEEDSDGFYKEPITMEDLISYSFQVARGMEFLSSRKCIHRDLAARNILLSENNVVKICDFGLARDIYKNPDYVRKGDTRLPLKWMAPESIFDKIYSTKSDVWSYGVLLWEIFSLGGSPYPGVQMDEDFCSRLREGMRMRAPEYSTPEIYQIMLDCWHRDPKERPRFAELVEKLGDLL

ERK7/MAPK15 = biological target: T2, ERK7/MAPK15 (Homo sapiens, UniProt Q8TD08); assay: Kinase IC50, 33P labeled isotope method
T2 sequence (Q8TD08 13-304 limits assumed): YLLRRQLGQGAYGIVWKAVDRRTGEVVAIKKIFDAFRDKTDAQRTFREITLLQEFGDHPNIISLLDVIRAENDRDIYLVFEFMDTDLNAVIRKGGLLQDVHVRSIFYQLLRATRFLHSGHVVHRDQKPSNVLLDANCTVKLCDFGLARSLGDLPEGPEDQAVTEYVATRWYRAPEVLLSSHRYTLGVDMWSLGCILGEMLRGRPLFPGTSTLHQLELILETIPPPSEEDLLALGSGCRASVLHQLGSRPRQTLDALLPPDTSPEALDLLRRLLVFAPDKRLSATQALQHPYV

CDK4/cyclin D1 = CDK4/cyclin D1 (Homo sapiens, UniProt P11802); assay: Kinase IC50, 33P labeled isotope method
CDK2/A = biological target: T3, CDK2/A (Homo sapiens, UniProt P24941); assay: Inhibitory activity to CDK2 (FRET); details: read-out: CDK2 inhibition % (1 × 10^−6 mol/L)
T3 construct: purchased
Summary of the method: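 FRET-based kinase assay using CDK2/cyclin A with peptide substrate in HEPES pH 7.5 buffer (MgCl2, BRIJ-35, EDTA). The kinase reaction ran 1 h, followed by development reagent for 1 h and a stop step. Inhibition calculated relative to phospho-peptide (100%) and ATP-free (0%) phosphorylation controls.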

FGFR2 = FGFR2 (Homo sapiens, UniProt P21802); assay: Kinase IC50, 33P labeled isotope method
CDK7/cyclin H = CDK7/cyclin H (Homo sapiens, UniProt P50613); assay: Kinase IC50, 33P labeled isotope method
KDR/VEGFR2 = KDR/VEGFR2 (Homo sapiens, UniProt P35968); assay: Kinase IC50, 33P labeled isotope method
JAK2 = JAK2 (Homo sapiens, UniProt O60674); assay: Kinase IC50, 33P labeled isotope method
FGFR1 = FGFR1 (Homo sapiens, UniProt P11362); assay: Kinase IC50, 33P labeled isotope method
CDK3/cyclin E = CDK3/cyclin E (Homo sapiens, UniProt Q00526); assay: Kinase IC50, 33P labeled isotope method
CDK2/cyclin A = CDK2/cyclin A (Homo sapiens, UniProt P24941); assay: Kinase IC50, 33P labeled isotope method
JNK1 = JNK1 (Homo sapiens, UniProt P45983); assay: Kinase IC50, 33P labeled isotope method
Aurora A = biological target: T4, Aurora A (Homo sapiens, UniProt O14965); assay: Inhibitory activity to Aurora A (FRET); details: read-out: Aurora A inhibition % (1 × 10^−6 mol/L)
T4 construct: purchased
T4 sequence (O14965 1-403): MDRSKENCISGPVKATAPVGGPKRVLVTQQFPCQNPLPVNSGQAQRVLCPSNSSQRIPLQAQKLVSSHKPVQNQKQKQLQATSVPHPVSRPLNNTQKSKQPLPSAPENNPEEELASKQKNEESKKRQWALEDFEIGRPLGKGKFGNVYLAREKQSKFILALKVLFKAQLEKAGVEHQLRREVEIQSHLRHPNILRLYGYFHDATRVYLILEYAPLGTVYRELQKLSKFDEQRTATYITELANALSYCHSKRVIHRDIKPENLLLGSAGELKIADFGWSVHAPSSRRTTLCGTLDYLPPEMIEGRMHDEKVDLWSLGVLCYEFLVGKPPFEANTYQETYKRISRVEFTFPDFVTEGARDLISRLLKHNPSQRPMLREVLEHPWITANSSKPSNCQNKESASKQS
Summary of the method: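 FRET kinase assay of Aurora A with peptide substrate in HEPES pH 7.5, BRIJ-35, MgCl2, EDTA; 1 h reaction, then 1 h development before stop. Ex 400 nm, emission 445 nm (coumarin) and 520 nm (fluorescein); 0% and 100% phosphorylation controls set inhibition scale.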

JNK2 = JNK2 (Homo sapiens, UniProt P45984); assay: Kinase IC50, 33P labeled isotope method
CDK5/p35 = CDK5/p35 (Homo sapiens, UniProt Q00535); assay: Kinase IC50, 33P labeled isotope method
CDK1/cyclin A = CDK1/cyclin A (Homo sapiens, UniProt P06493); assay: Kinase IC50, 33P labeled isotope method
CDK1/cyclin B = CDK1/cyclin B (Homo sapiens, UniProt P06493); assay: Kinase IC50, 33P labeled isotope method
[1] = 20 μM ATP, read-out: IC50* CDK1/cyclin E
[2] = 20 μM ATP, read-out: IC50* FGFR2
[3] = 20 μM ATP, read-out: IC50* CDK7/cyclin H
[4] = 20 μM ATP, read-out: IC50* JAK2
[5] = 20 μM ATP, read-out: IC50* FGFR1
[6] = 20 μM ATP, read-out: IC50* JNK1
[7] = 20 μM ATP, read-out: IC50* JNK2
[8] = 20 μM ATP, read-out: IC50* CDK5/p35
[9] = 20 μM ATP, read-out: IC50* CDK1/cyclin B
[10] = 20 μM ATP, read-out: IC50* CDK2/Cyclin A1
[11] = 20 μM ATP, read-out: IC50* FLT1/VEGFR1
[12] = 20 μM ATP, read-out: IC50* ERK7/MAPK15
[13] = 20 μM ATP, read-out: IC50* CDK4/cyclin D1
[14] = 20 μM ATP, read-out: IC50* KDR/VEGFR2
[15] = 20 μM ATP, read-out: IC50* CDK3/cyclin E
[16] = 20 μM ATP, read-out: IC50* CDK2/cyclin A
[17] = 20 μM ATP, read-out: IC50* CDK1/cyclin A

FGFR2, sequence (P21802 481-770 limits assumed): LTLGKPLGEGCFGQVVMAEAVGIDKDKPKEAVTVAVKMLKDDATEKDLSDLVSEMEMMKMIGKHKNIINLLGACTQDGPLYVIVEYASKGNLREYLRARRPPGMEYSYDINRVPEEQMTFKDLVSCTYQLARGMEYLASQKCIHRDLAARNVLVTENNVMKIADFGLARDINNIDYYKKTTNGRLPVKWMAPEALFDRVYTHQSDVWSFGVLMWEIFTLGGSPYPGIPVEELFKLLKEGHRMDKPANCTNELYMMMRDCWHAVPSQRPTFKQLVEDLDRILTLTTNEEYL
FGFR3, sequence (P22607 472-761 limits assumed): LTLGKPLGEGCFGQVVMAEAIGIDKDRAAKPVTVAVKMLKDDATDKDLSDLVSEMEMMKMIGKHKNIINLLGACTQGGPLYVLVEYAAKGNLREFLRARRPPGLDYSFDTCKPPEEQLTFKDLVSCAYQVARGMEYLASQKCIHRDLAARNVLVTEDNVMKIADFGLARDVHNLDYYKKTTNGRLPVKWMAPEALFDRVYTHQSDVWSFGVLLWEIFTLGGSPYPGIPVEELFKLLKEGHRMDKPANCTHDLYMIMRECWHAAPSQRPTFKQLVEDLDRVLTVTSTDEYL
FGFR1, sequence (P11362 478-767 limits assumed): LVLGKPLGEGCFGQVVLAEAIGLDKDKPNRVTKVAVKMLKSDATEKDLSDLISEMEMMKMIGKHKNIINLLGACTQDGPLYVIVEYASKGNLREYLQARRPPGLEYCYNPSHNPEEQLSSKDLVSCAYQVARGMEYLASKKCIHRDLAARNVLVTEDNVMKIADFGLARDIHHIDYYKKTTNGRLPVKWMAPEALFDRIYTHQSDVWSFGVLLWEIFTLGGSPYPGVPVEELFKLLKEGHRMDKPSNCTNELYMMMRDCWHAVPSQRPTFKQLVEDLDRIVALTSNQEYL
JNK1, sequence (P45983 26-321 limits assumed): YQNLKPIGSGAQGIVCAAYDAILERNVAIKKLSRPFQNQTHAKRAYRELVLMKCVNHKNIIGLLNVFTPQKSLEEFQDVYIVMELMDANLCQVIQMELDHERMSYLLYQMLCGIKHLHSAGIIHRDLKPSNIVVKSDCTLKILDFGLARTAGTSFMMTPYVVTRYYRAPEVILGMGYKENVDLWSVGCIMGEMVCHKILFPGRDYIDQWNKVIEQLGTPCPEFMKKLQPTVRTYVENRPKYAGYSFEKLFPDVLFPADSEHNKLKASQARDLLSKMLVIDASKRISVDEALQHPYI
KDR/VEGFR2, sequence (P35968 834-1162 limits assumed): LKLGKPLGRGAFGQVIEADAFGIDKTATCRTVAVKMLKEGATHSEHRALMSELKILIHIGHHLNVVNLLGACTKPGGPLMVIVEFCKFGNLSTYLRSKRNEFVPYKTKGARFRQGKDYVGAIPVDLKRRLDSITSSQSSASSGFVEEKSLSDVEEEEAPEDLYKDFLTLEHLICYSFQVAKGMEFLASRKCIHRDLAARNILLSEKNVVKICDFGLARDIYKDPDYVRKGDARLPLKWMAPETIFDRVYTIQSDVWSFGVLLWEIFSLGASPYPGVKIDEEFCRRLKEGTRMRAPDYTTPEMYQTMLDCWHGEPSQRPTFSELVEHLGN
JNK2, sequence (P45984 26-321 limits assumed): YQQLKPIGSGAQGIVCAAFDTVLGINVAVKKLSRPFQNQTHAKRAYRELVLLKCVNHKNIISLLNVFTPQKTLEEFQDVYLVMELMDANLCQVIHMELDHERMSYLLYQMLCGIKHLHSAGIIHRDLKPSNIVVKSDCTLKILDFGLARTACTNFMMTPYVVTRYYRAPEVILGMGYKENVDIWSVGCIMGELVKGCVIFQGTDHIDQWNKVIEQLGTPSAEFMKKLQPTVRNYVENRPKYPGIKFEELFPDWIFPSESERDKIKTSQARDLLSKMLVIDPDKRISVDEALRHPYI
CDK5/p35, sequence (Q00535 4-286 limits assumed): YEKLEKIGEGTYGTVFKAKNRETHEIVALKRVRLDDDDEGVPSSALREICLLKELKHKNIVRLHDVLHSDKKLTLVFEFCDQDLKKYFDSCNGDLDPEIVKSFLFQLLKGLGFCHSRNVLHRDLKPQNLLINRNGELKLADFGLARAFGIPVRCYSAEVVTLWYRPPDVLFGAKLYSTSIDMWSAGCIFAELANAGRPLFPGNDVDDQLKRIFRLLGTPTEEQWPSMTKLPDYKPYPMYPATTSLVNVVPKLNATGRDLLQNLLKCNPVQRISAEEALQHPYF
CDK5/p35, sequence (Q15078 whole entry partner): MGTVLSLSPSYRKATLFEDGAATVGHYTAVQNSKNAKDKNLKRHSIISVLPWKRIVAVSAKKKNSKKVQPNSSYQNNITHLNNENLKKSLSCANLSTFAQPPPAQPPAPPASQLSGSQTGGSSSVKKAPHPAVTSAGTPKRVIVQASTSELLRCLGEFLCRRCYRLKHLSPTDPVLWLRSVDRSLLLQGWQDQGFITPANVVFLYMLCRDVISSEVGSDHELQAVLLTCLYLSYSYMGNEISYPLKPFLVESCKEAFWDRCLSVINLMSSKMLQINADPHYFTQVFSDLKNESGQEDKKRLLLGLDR
CDK4/cyclin D1, sequence (P11802 6-295 limits assumed): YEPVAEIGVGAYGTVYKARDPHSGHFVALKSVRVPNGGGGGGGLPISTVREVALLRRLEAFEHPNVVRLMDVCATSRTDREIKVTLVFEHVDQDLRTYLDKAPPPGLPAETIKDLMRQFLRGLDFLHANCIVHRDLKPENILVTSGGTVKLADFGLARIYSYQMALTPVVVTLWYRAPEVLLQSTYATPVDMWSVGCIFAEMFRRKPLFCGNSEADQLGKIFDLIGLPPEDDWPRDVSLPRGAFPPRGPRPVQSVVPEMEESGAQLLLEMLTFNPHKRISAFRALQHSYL
CDK4/cyclin D1, sequence (P24385 whole entry partner): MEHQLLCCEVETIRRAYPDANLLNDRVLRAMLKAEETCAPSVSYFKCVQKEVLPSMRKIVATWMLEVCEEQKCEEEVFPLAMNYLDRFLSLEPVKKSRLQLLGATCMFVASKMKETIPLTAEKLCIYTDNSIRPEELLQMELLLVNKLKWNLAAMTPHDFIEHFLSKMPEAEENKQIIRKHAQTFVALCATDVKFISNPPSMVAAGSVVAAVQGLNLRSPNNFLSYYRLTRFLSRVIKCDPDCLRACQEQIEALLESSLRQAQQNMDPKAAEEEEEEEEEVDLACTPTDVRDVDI
CDK7/cyclin H, sequence (P50613 12-295 limits assumed): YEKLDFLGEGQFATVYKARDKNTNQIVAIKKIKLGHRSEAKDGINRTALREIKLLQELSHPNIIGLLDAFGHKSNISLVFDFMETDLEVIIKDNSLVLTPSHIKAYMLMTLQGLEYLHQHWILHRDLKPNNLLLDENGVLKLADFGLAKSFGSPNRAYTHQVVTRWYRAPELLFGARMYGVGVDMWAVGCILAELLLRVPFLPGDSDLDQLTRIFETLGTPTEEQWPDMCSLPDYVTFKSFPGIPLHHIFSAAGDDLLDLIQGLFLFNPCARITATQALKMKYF
CDK7/cyclin H, sequence (P51946 whole entry partner): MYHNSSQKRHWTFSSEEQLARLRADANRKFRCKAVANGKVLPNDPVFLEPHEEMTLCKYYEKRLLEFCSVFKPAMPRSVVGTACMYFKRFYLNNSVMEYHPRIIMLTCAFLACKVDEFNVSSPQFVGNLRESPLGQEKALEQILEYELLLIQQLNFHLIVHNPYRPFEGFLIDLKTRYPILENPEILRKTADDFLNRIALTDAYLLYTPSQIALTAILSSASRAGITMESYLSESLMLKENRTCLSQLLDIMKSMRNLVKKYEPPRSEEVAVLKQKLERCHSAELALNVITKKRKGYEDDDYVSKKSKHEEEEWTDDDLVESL
CDK7/cyclin H, sequence (P51948 whole entry partner): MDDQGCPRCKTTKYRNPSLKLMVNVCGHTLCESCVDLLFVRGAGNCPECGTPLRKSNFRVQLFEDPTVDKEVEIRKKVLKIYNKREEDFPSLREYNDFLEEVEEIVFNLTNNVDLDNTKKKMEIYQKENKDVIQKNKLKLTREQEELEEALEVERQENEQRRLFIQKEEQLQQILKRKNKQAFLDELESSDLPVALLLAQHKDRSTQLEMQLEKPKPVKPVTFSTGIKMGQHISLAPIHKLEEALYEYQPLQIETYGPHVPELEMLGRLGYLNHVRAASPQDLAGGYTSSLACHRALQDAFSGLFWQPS
CDK1/cyclin E, sequence (P06493 4-287 limits assumed): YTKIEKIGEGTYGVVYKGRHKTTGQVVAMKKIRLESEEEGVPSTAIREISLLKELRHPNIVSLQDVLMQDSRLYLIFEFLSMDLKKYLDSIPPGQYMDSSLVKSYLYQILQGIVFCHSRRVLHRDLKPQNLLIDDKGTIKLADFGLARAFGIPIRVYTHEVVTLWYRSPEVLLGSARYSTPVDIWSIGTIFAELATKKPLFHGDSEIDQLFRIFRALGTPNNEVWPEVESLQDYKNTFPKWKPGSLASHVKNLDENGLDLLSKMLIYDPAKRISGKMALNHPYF
CDK1/cyclin E, sequence (P24864 whole entry partner): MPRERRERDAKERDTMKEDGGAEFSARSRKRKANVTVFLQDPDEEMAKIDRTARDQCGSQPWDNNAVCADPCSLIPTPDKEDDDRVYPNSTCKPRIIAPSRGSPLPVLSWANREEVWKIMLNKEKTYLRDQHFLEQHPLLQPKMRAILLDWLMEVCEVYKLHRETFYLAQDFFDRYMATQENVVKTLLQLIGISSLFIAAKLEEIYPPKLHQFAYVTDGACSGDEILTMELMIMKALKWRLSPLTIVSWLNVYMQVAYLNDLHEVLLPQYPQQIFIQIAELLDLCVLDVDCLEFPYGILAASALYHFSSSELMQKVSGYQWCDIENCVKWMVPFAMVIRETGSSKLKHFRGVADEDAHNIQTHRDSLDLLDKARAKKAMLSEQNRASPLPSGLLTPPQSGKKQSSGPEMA

SMILES	IC50 (CDK1/cyclin E; [1]) [nM]	IC50 (FGFR3) [nM]	inhibition at 1 µM (CDK2/A) [%]	IC50 (FGFR2; [2]) [nM]	IC50 (CDK7/cyclin H; [3]) [nM]	IC50 (JAK2; [4]) [nM]	IC50 (FGFR1; [5]) [nM]	IC50 (JNK1; [6]) [nM]	inhibition at 1 µM (Aurora A) [%]	IC50 (JNK2; [7]) [nM]	IC50 (CDK5/p35; [8]) [nM]	IC50 (CDK1/cyclin B; [9]) [nM]	IC50 (CDK2/Cyclin A1; [10]) [nM]	IC50 (FLT1/VEGFR1; [11]) [nM]	IC50 (ERK7/MAPK15; [12]) [nM]	IC50 (CDK4/cyclin D1; [13]) [nM]	IC50 (KDR/VEGFR2; [14]) [nM]	IC50 (CDK3/cyclin E; [15]) [nM]	IC50 (CDK2/cyclin A; [16]) [nM]	IC50 (CDK1/cyclin A; [17]) [nM]	also measured
CN1CCN(Cc2ccc(NC(=O)c3n[nH]cc3Nc3ncnc4sccc34)cc2)CC1 [Compound I-1, 4-(4-thieno[2,3-d]pyrimidinylamino)-N-(4-((4-methyl-1-piperazinyl)methyl)phenyl)-1H-3-pyrazole carboxamide]	96	807	70.9	233	522	795	304	≥ 1000	67.9	≥ 1000	15	87									IC50 (CDK2/Cyclin A1): 9 nM; IC50 (FLT1/VEGFR1): 20 nM; IC50 (ERK7/MAPK15): 7 nM; IC50 (CDK4/cyclin D1): 6 nM; IC50 (KDR/VEGFR2): 35 nM; IC50 (CDK3/cyclin E): 190 nM; IC50 (CDK2/cyclin A): 15 nM; IC50 (CDK1/cyclin A): 157 nM
O=C(Nc1ccc(CN2CCOCC2)cc1)c1n[nH]cc1Nc1ncnc2sccc12 [Compound I-2, 4-(4-thieno[2,3-d]pyrimidinylamino)-N-(4-((4-morpholinyl)methyl)phenyl)-1H-3-pyrazolecarboxamide]			46.6						52.2												
Cc1cc2c(Nc3c[nH]nc3C(=O)Nc3ccc(CN4CCN(C)CC4)cc3)ncnc2s1 [Compound I-3, 4-(4-(6-methylthieno[2,3-d]pyrimidinyl)amino)-N-(4-((4-methyl-1-piperazinyl)methyl)phenyl)-1H-3-pyrazolecarboxamide]	87	723	62.5	210	495	716	274	1130	75.2	1170	13	79	9	19	7	6	33	171	14	142	
CN1CCN(Cc2ccc(NC(=O)c3n[nH]cc3Nc3ncnc4[nH]ccc34)cc2)CC1 [Compound I-11, 4-(4-(7H-pyrrolo[2,3-d]pyrimidinyl)amino)-N-(4-((4-methyl-1-piperazinyl)methyl)phenyl)-1H-3-pyrazolecarboxamide]		657	67.9						64.3												IC50 (CDK1/cyclin E): 78 nM; IC50 (CDK2/Cyclin A1): 8 nM; IC50 (FLT1/VEGFR1): 19 nM; IC50 (ERK7/MAPK15): 7 nM; IC50 (CDK4/cyclin D1): 6 nM; IC50 (FGFR2): 189 nM; IC50 (CDK7/cyclin H): 471 nM; IC50 (KDR/VEGFR2): 31 nM; IC50 (JAK2): 644 nM; IC50 (FGFR1): 247 nM; IC50 (CDK3/cyclin E): 155 nM; IC50 (CDK2/cyclin A): 13 nM; IC50 (JNK1): 1240 nM; IC50 (JNK2): 1320 nM; IC50 (CDK5/p35): 12 nM; IC50 (CDK1/cyclin A): 128 nM; IC50 (CDK1/cyclin B): 71 nM
Cc1cc2c(Nc3c[nH]nc3C(=O)Nc3ccc(CN4CCN(C)CC4)cc3)ncnc2[nH]1 [Compound I-13, 4-(4-(6-methyl-7H-pyrrolo[2,3-d]pyrimidinyl)amino)-N-(4-((4-methyl-1-piperazinyl)methyl)phenyl)-1H-3-pyrazolecarboxamide]	97	811	67	234	583	795	305	1550	60.8	1650	15	88	10	23	8	8	39	191	15	158	
CN1CCN(Cc2ccc(NC(=O)c3n[nH]cc3Nc3ncnc4occc34)cc2)CC1 [Compound I-21, 4-(4-furo[2,3-d]pyrimidinylamino)-N-(4-((4-methyl-1-piperazinyl)methyl)phenyl)-1H-3-pyrazolecarboxamide]	106	890	66	257	611	875	335	1430	60.8	1490	16	96	11	24	8	7	41	210	17	173	
Cc1cc2c(Nc3c[nH]nc3C(=O)Nc3ccc(CN4CCN(C)CC4)cc3)nccc2s1 [Compound I-27, 4-(4-(2-methylthieno[3,2-c]pyridyl)amino)-N-(4-((4-methyl-1-piperazinyl)methyl)phenyl)-1H-3-pyrazolecarboxamide]	100	841	72.6	242	575	826	316	1330	67.8	1380	15	91	10	22	8	7	38	198	16	164	
